# Data from ChEMBL document CHEMBL1201862, “PubChem BioAssay data set” (2004).
#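 1) Cells in 96-well plates. 2) Compound, 48 h, 5 concentrations. 3) Linear interpolation between surrounding doses. 4) Unreached endpoint = highest concentration. Abbreviation: GI50, concentration required for 50% inhibition of growth.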 Activity calls are given as the source filed them. No stated cut-off is given here; in the data, active = GI50 up to about 1.1 µM and inactive = higher.
# Columns and labels:
# Assay in all cases: growth of human tumour cells (NCI), 48 h
# [1] = system: DMS-114
# [2] = system: HOP-18
# [3] = system: UACC-62
# [4] = system: RXF 393
# [5] = system: NCI-H522
# [6] = system: SK-MEL-5
# [7] = system: A498
# [8] = system: SW-620
# [9] = system: NCI-H23
# [10] = system: SR
# [11] = system: ACHN
# [12] = system: SNB-19
# [13] = system: NCI-H226
# [14] = system: UO-31
# [15] = system: HCT-15
# [16] = system: HL-60
# [17] = system: SNB-75
# [18] = system: NCI-H460
# [19] = system: LOX IMVI
# [20] = system: HCT-116
# [21] = system: M14
# [22] = system: RPMI-8226
# [23] = system: DMS-273
# [24] = system: OVCAR-3
# [25] = system: SN12C
# [26] = system: HCC 2998
# [27] = system: EKVX
# [28] = system: M19-MEL
# [29] = system: OVCAR-5
# [30] = system: SNB-78
# [31] = system: KM-20L2
# [32] = system: U-251
# [33] = system: HT-29
# [34] = system: Malme-3M
# [35] = system: K562
# [36] = system: COLO 205
# [37] = system: OVCAR-8
# [38] = system: SK-MEL-2
# [39] = system: DLD-1
# [40] = system: IGROV-1
# [41] = system: LXFL 529
# [42] = system: 786-0
# [43] = system: SK-MEL-28
# [44] = system: HOP-62
# [45] = system: SF-295
# [46] = system: XF498
# [47] = system: KM12
# [48] = system: UACC-257
# [49] = system: OVCAR-4
# [50] = system: SF-539
# [51] = system: A549
# [52] = system: CCRF-CEM
# [53] = system: SK-OV-3
# [54] = system: TK-10
# [55] = system: MOLT-4
# [56] = system: HOP-92
# [57] = system: SF-268
# [58] = system: CAKI-1
smiles,measurement,setting,value
C/C=C/CP(=O)(c1ccccc1)c1ccccc1,GI50,[1],> 100 µM (inactive)
same,GI50,[2],> 100 µM (inactive)
same,GI50,[3],> 100 µM (inactive)
same,GI50,[4],> 100 µM (inactive)
same,GI50,[5],> 100 µM (inactive)
same,GI50,[6],> 100 µM (inactive)
same,GI50,[7],> 100 µM (inactive)
same,GI50,[8],> 100 µM (inactive)
same,GI50,[9],> 100 µM (inactive)
same,GI50,[10],> 100 µM (inactive)
same,GI50,[11],> 100 µM (inactive)
same,GI50,[12],> 100 µM (inactive)
same,GI50,[13],> 100 µM (inactive)
same,GI50,[14],> 100 µM (inactive)
same,GI50,[15],> 100 µM
same,GI50,[16],> 100 µM (inactive)
same,GI50,[17],> 100 µM (inactive)
same,GI50,[18],> 100 µM (inactive)
same,GI50,[19],> 100 µM (inactive)
same,GI50,[20],> 100 µM (inactive)
same,GI50,[21],> 100 µM (inactive)
same,GI50,[22],> 100 µM (inactive)
same,GI50,[23],> 100 µM (inactive)
same,GI50,[24],> 100 µM (inactive)
same,GI50,[25],> 100 µM (inactive)
same,GI50,[26],> 100 µM (inactive)
same,GI50,[27],> 100 µM (inactive)
same,GI50,[28],> 100 µM (inactive)
same,GI50,[29],> 100 µM (inactive)
same,GI50,[30],> 100 µM (inactive)
same,GI50,[31],> 100 µM (inactive)
same,GI50,[32],> 100 µM (inactive)
same,GI50,[33],> 100 µM (inactive)
same,GI50,[34],> 100 µM (inactive)
same,GI50,[35],> 100 µM (inactive)
same,GI50,[36],> 100 µM (inactive)
same,GI50,[37],> 100 µM (inactive)
same,GI50,[38],> 100 µM (inactive)
same,GI50,[39],> 100 µM (inactive)
same,GI50,[40],> 100 µM (inactive)
same,GI50,[41],> 100 µM (inactive)
same,GI50,[42],> 100 µM (inactive)
same,GI50,[43],> 100 µM (inactive)
same,GI50,[44],> 100 µM (inactive)
same,GI50,[45],> 100 µM (inactive)
same,GI50,[46],> 100 µM (inactive)
same,GI50,[47],> 100 µM (inactive)
same,GI50,[48],> 100 µM (inactive)
same,GI50,[49],> 100 µM (inactive)
same,GI50,[50],> 100 µM (inactive)
same,GI50,[51],> 100 µM (inactive)
same,GI50,[52],> 100 µM (inactive)
same,GI50,[53],> 100 µM (inactive)
same,GI50,[54],> 100 µM (inactive)
same,GI50,[55],> 100 µM (inactive)
O=C(O)c1c2c(c(C(=O)O)c3ccccc13)-c1ccccc1-2,GI50,[1],74.1 µM (inactive)
same,GI50,[2],20.4 µM (inactive)
same,GI50,[3],22.9 µM (inactive)
same,GI50,[4],21.9 µM (inactive)
same,GI50,[5],35.2 µM (inactive)
same,GI50,[7],44.1 µM (inactive)
same,GI50,[8],36.8 µM (inactive)
same,GI50,[9],39.8 µM (inactive)
same,GI50,[10],55.6 µM (inactive)
same,GI50,[11],30.8 µM (inactive)
same,GI50,[12],36.6 µM (inactive)
same,GI50,[13],34 µM (inactive)
same,GI50,[14],28.1 µM (inactive)
same,GI50,[16],36.4 µM (inactive)
same,GI50,[17],36.7 µM (inactive)
same,GI50,[19],38.4 µM (inactive)
same,GI50,[20],78.9 µM (inactive)
same,GI50,[21],47.5 µM (inactive)
same,GI50,[22],40.2 µM (inactive)
same,GI50,[23],49.3 µM (inactive)
same,GI50,[24],27.5 µM (inactive)
same,GI50,[25],35.1 µM (inactive)
same,GI50,[26],37.1 µM (inactive)
same,GI50,[56],23.3 µM (inactive)
same,GI50,[27],31.4 µM (inactive)
same,GI50,[57],31.9 µM (inactive)
same,GI50,[28],69 µM (inactive)
same,GI50,[29],> 100 µM (inactive)
same,GI50,[30],71.1 µM (inactive)
same,GI50,[31],42.7 µM (inactive)
same,GI50,[32],35.6 µM (inactive)
same,GI50,[33],47.4 µM (inactive)
same,GI50,[34],31 µM (inactive)
same,GI50,[35],33.6 µM (inactive)
same,GI50,[36],71.3 µM (inactive)
same,GI50,[37],39.9 µM (inactive)
same,GI50,[38],33.3 µM (inactive)
same,GI50,[39],41.4 µM (inactive)
same,GI50,[40],> 10 µM (inactive)
same,GI50,[41],39.8 µM (inactive)
same,GI50,[42],36.8 µM (inactive)
same,GI50,[43],20.3 µM (inactive)
same,GI50,[44],31.7 µM (inactive)
same,GI50,[45],33.6 µM (inactive)
same,GI50,[46],35.5 µM (inactive)
same,GI50,[47],38.4 µM (inactive)
same,GI50,[48],47.5 µM (inactive)
same,GI50,[50],28.7 µM (inactive)
same,GI50,[51],36 µM (inactive)
same,GI50,[52],32.5 µM (inactive)
same,GI50,[53],27.8 µM (inactive)
same,GI50,[54],36.1 µM (inactive)
same,GI50,[55],39.5 µM (inactive)
Cc1nc(Nc2ccc(Cl)cc2)sc1C(=O)NNc1ccc([N+](=O)[O-])cc1[N+](=O)[O-],GI50,[1],14.6 µM (inactive)
same,GI50,[2],14 µM (inactive)
same,GI50,[3],14.3 µM (inactive)
same,GI50,[4],16.3 µM (inactive)
same,GI50,[58],23.6 µM (inactive)
same,GI50,[5],14 µM (inactive)
same,GI50,[6],15.6 µM (inactive)
same,GI50,[7],15.9 µM (inactive)
same,GI50,[8],22 µM (inactive)
same,GI50,[9],17.3 µM (inactive)
same,GI50,[11],17.3 µM (inactive)
same,GI50,[12],16.7 µM (inactive)
same,GI50,[13],15.7 µM (inactive)
same,GI50,[14],14.2 µM (inactive)
same,GI50,[16],16 µM (inactive)
same,GI50,[17],16.7 µM (inactive)
same,GI50,[18],18 µM (inactive)
same,GI50,[19],15.1 µM (inactive)
same,GI50,[20],13.8 µM (inactive)
same,GI50,[21],24.7 µM (inactive)
same,GI50,[22],18.2 µM (inactive)
same,GI50,[23],19.5 µM (inactive)
same,GI50,[24],19.3 µM (inactive)
same,GI50,[25],17.7 µM (inactive)
same,GI50,[26],16.3 µM (inactive)
same,GI50,[56],23.6 µM (inactive)
same,GI50,[27],14.9 µM (inactive)
same,GI50,[57],18.7 µM (inactive)
same,GI50,[28],22 µM (inactive)
same,GI50,[29],16.3 µM (inactive)
same,GI50,[30],39.1 µM (inactive)
same,GI50,[31],16.2 µM (inactive)
same,GI50,[32],15.6 µM (inactive)
same,GI50,[34],20.7 µM (inactive)
same,GI50,[35],16.8 µM (inactive)
same,GI50,[36],19.8 µM (inactive)
same,GI50,[37],21.4 µM (inactive)
same,GI50,[38],17.9 µM (inactive)
same,GI50,[39],14.2 µM (inactive)
same,GI50,[40],20.9 µM (inactive)
same,GI50,[41],17.1 µM (inactive)
same,GI50,[42],16.3 µM (inactive)
same,GI50,[43],19.9 µM (inactive)
same,GI50,[44],12.2 µM (inactive)
same,GI50,[45],18.1 µM (inactive)
same,GI50,[46],16.9 µM (inactive)
same,GI50,[47],15.8 µM (inactive)
same,GI50,[48],16.4 µM (inactive)
same,GI50,[49],18.4 µM (inactive)
same,GI50,[50],17.3 µM (inactive)
same,GI50,[51],16.6 µM (inactive)
same,GI50,[52],17.8 µM (inactive)
same,GI50,[53],29.2 µM (inactive)
same,GI50,[54],19.8 µM (inactive)
same,GI50,[55],15 µM (inactive)
